# Calls of active or inactive are those of the source.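 How the source made its calls: active means compound flagged as a likely artifact in this counterscreen, with IC50 of 10 µM or lower; inactive means IC50 above 10 µM.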
# Test system: HEK293 Gal4-VP16 luciferase reporter counterscreen, luminescence
# Assay: Gal4-VP16 luciferase reporter inhibitors, dose response, counter-screen for COUP-TFII inhibitor project, cell-based, luminescence, HEK293 (AID 720547);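 further: potency for lowering the luciferase signal driven by Gal4-VP16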
row,SMILES,IC50
1,COc1ccc(C(=O)C2CCN(c3ncnc4sccc34)CC2)cc1,> 28.4 µM (inactive)
2,COc1cccc(CN(C)C(=O)c2ccc(OCC(=O)Nc3cccc(C(F)(F)F)c3)c(OC)c2)c1,> 28.5 µM (inactive)
3,CC(=O)c1ccc(N2CCN(C(=S)Nc3ccc(Oc4ccccc4)cc3)CC2)cc1,> 85.4 µM (inactive)
4,CCN(CC)S(=O)(=O)c1cccc(NC(=O)CNc2cccc(S(=O)(=O)N3CCCC3)c2)c1,> 85.4 µM (inactive)
5,Cc1sc2ncnc(NCCc3ccc(S(N)(=O)=O)cc3)c2c1C,> 85.4 µM (inactive)
6,Clc1ccc(-n2ncc3c(NCCN4CCOCC4)ncnc32)cc1,> 85.4 µM (inactive)
7,CC(=O)N[C@@H](C)c1nc2ccccc2n1CCCN1CCN(c2nc(-c3ccc(C)cc3)cs2)CC1,57 µM (inactive)
8,CC[C@H]1CN2CCc3cc(OC)c(OC)cc3C2C[C@@H]1C[C@H]1NCCc2cc(OC)c(OC)cc21 (stereo partly drawn),> 85.4 µM (inactive)
9,CCN(CC)S(=O)(=O)c1cccc(NC(=O)COC(=O)c2[nH]c(C)c(C(C)=O)c2C)c1,> 28.5 µM (inactive)
10,COc1ccc(-c2csc(NC(=O)C3CCN(c4ncnc5sc(C)c(C)c45)CC3)n2)cc1OC,25.7 µM (inactive)
11,CC(C)(C)c1ccc(-c2cc(-c3ccccc3O)[nH]n2)cc1,36.6 µM (inactive)
12,O=C(NCC(c1ccco1)N1CCCC1)c1ccc(Cl)c(S(=O)(=O)N2CCc3ccccc32)c1 (stereo not drawn),> 28.5 µM (inactive)
13,COC(=O)C1CCCCN1C(=O)c1cc(COc2cccc3cnccc23)on1 (stereo not drawn),> 85.4 µM (inactive)
14,Cc1cccc(Nc2nc(-c3c(C)nc4ccccn34)cs2)c1,66.3 µM (inactive)
15,CC(C)(C)c1ccc(C2CC2C(=O)N/N=C\c2ccc[nH]2)cc1 (stereo not drawn),> 85.4 µM (inactive)
16,COc1ccc(NS(=O)(=O)c2cccc(NC(=O)c3ccc(Cl)nc3)c2)cc1,73.5 µM (inactive)
17,Fc1ccc(-n2nnnc2-c2cnc(-c3cccs3)nc2C(F)(F)F)cc1,33.4 µM (inactive)
18,N=c1c2c(n(Cc3ccc(Cl)cc3)c3c1CCC3)CCC2,89 µM (inactive)
19,Cc1oc(-c2ccc(Cl)cc2)nc1CS(=O)CC(=O)NCCCN1CCN(Cc2ccccc2)CC1 (stereo not drawn),> 28.5 µM (inactive)
20,Cc1cccc(Cl)c1NC(=O)N1CCCN(c2nc3ccc(Cl)cc3s2)CC1,> 85.4 µM (inactive)
21,Cc1ccc(F)cc1NC(=O)Cc1nn(C)c(=O)c2ccccc12,> 85.4 µM (inactive)
22,CCOC(=O)N1CCC(NC(=O)C2CCCN(Cc3nc(-c4ccc(CC)cc4)oc3C)C2)CC1 (stereo not drawn),80.1 µM (inactive)
23,Oc1ccc(Oc2ccc3c(C(F)(F)F)cc(C(F)(F)F)nc3n2)cc1,37 µM (inactive)
24,COc1ccc(NC(=O)COc2ccc(N(C)S(=O)(=O)c3ccc(Cl)cc3)cc2)cc1OC,> 85.4 µM (inactive)

row,SMILES,IC50
1,Cc1sc2ncnc(NCC3COc4ccccc4O3)c2c1C (stereo not drawn),> 85.4 µM (inactive)
2,c1ccc2c(c1)CCN(c1ncnc3c1[nH]c1ccccc13)C2,53.8 µM (inactive)
3,CCOC(=O)c1c(C)[nH]c(C(=O)OCC(=O)Nc2sccc2C(N)=O)c1C,29.8 µM (inactive)
4,Cc1cc(C)c(CN2CCN(C(=O)Cn3cnc4c(NCc5ccccc5)ncnc43)CC2)c(C)c1,> 85.4 µM (inactive)
5,CC(C)(C)c1ccc(-c2nnc3sc(-c4ccccn4)nn23)cc1,> 85.4 µM (inactive)
6,Cc1nn(C)c(C)c1CN(C)S(=O)(=O)c1ccc2ccccc2c1,> 85.4 µM (inactive)
7,Cc1nn(C)c(C)c1/C=C/C(=O)c1ccc(Cl)cc1Cl,> 85.4 µM (inactive)
8,OC[C@@H]1CN(Cc2ccc(-c3ccccc3)cc2)C[C@H](n2cnc3c(NCc4ccncc4)ncnc32)O1,59.3 µM (inactive)
9,N#CCSc1nnc(-c2sc3ccccc3c2Cl)o1,85.9 µM (inactive)
10,Cc1c(/C(O)=C2/C(=O)C(=O)N(CCN3CCOCC3)C2c2ccco2)cnn1-c1ccccc1 (stereo not drawn),21.3 µM (inactive)
11,NC(=O)c1c(-c2ccc(Cl)cc2Cl)csc1NC(=O)Cc1ccccc1,> 85.4 µM (inactive)
12,Cc1nc2c(-c3ccccc3)cnn2c(N)c1-c1ccccc1,59.7 µM (inactive)
13,CCCCCCn1c2c(c(=N)c3c1CCC3)CCC2,> 85.4 µM (inactive)
14,COc1ccc(C2=Nn3c([n+](C)c4ccccc43)SC2)cc1,> 85.4 µM (inactive)
15,c1ccc2cc3[nH]c(CNc4nc(N5CCOCC5)nc5c4ncn5-c4ccsc4)nc3cc2c1,> 85.3 µM (inactive)
16,C[C@H]1C[C@@H](C)C(=O)[C@@H]([C@H](O)CC2CC(=O)NC(=O)C2)C1,> 85.4 µM (inactive)
17,CC(=O)Nc1ccccc1OCC(=O)c1cc(C)n(Cc2cccs2)c1C,> 85.5 µM (inactive)
18,CCCc1cc(=O)n2nc(N3CCC(C(=O)N4CCN(c5ccc(OC)cc5)CC4)CC3)sc2n1,> 85.4 µM (inactive)
19,COc1ccccc1-n1c(-c2ccccc2)c[n+]2c1CCc1ccccc1-2,> 85.4 µM (inactive)
20,C=CCC1(CC=C)CCCN1C(=O)c1cc(COc2ccc(C)nc2)on1,> 85.4 µM (inactive)
21,N#CC(C#N)=C(Nc1ccc(F)cc1)SCc1cccc(Br)c1,> 85.4 µM (inactive)
22,O=C(NC1CCCCCCC1)c1cc(COc2ccc3ncccc3c2)on1,> 85.4 µM (inactive)
23,COCCn1c(C)c(C)c2c(NCCc3ccccc3)ncnc21,> 85.3 µM (inactive)
24,Cc1nn(C)c(C)c1NC(=O)COc1ccc(Cl)cc1Br,> 85.4 µM (inactive)

row,SMILES,IC50
1,CCOc1ccc(S(=O)(=O)NCc2ccncc2)cc1,> 85.4 µM (inactive)
2,Cc1cccc(Nc2nc(NCc3ccco3)c3ccccc3n2)c1,53 µM (inactive)
3,O=C(/C=C/c1ccc([N+](=O)[O-])cc1)c1ccccc(=O)c1O,13.2 µM (inactive)
4,O=c1c2ccccc2oc2cc(C#CC3(O)CCCCC3)ccc12,56.2 µM (inactive)
5,CCOC(=O)N1CCN(C(=O)CSCC(=O)Nc2nc(-c3ccc(-c4ccccc4)cc3)cs2)CC1,> 28.4 µM (inactive)
6,COc1ccc(-c2ccc3oc(-c4ccc(OC)cc4)c(C#CCO)c3c2)cc1,> 85.4 µM (inactive)
7,O=C(Nc1ccncc1)c1ccc(Cl)c(S(=O)(=O)N2CCc3ccccc32)c1,60.6 µM (inactive)
8,CC1Cc2cc(-c3csc(NC(=O)Cc4ccccc4)n3)ccc2N1S(C)(=O)=O (stereo not drawn),> 85.4 µM (inactive)
9,Cc1cc(N2CCN(c3nc4ccccc4s3)CC2)n2ncnc2n1,> 85.4 µM (inactive)
10,CCOc1ccc(-n2c(-c3ccccc3)c[n+]3c2CCCCC3)cc1,> 85.4 µM (inactive)
11,C[C@@H]1C[C@@H]([C@H](O)CC2CC(=O)NC(=O)C2)C(=O)[C@@H](C)C1,> 85.4 µM (inactive)
12,CCN=c1scc(-c2ccc3c(c2)NC(=O)CO3)n1N=C1CCCC1,> 85.4 µM (inactive)
13,COc1ccc(CN(C)c2ccc(S(=O)(=O)N3CCN(C)CC3)cc2[N+](=O)[O-])cc1OC,> 85.4 µM (inactive)
14,Cc1cc(C)c(CN2CCN(C(=O)Cn3cnc4c(OCc5ccccc5)ncnc43)CC2)c(C)c1,> 85.3 µM (inactive)
15,O=C(c1cccs1)C1CCN(c2ncnc3sccc23)CC1,> 85.4 µM (inactive)
16,Cc1c(C(=O)NCc2ccc(C(C)C)cc2)sc(=O)n1Cc1ccc(S(=O)(=O)N(C)C)cc1,> 85.4 µM (inactive)
17,CC(C)CC(NC(=O)CCCNC(=O)CCC(=O)OC1O[C@H]2OC3(C)CC[C@H]4[C@H](C)CCC(C1C)C24OO3)C(=O)O (stereo partly drawn),> 85.4 µM (inactive)
18,COc1ccccc1-[n+]1c(C)cc(/C=C2\Sc3ccccc3N2C)cc1C,27.8 µM (inactive)
19,CC(Nc1ncnc2ccccc12)c1ccccc1 (stereo not drawn),> 85.5 µM (inactive)
20,CCOC(=O)C1CCCN(S(=O)(=O)c2ccc(S(=O)(=O)N(CC)CC)cc2)C1 (stereo not drawn),> 85.4 µM (inactive)
21,CCCCn1c2c(c(=N)c3c1CCC3)CCC2,> 85.4 µM (inactive)
22,CCC1CCCCN1C(=O)c1cc(COc2ccc3ncccc3c2)on1 (stereo not drawn),> 85.4 µM (inactive)
23,CC(=O)c1c(C)[nH]c(C(=O)COc2cc(C)ccc2C(C)C)c1C,> 85.4 µM (inactive)
24,C=CCC1(CC=C)CCCN1C(=O)c1cc(COc2ccc(-n3cncn3)cc2)on1,> 85.4 µM (inactive)

row,SMILES,IC50
1,CCSc1nc2ccccc2n1C(=O)/C=C/c1ccc(OC)c(OC)c1,19.4 µM (inactive)
2,CC(=O)c1c(C)[nH]c(C(=O)OCC(=O)Nc2ccc(Cl)cc2[N+](=O)[O-])c1C,> 85.4 µM (inactive)
3,Cc1ccc(C(=O)NC2CCCc3c2cnn3-c2ccc(F)cc2F)cn1 (stereo not drawn),> 85.4 µM (inactive)
4,O=C1N(c2ccccc2)C[C@@H]2C[C@@H](c3cc4ccccc4o3)N3CCC[C@@]123,> 85.4 µM (inactive)
5,Cc1ccccc1Cn1c(C)nc2ccccc21,> 85.4 µM (inactive)
6,Cc1cc(/C=C2\Sc3ccccc3N2C)cc(C)[n+]1CC1CCCO1 (stereo not drawn),> 85.4 µM (inactive)
7,Cc1ccc(-c2cc3cccc[n+]3cc2-c2ccc(C)cc2)cc1,> 28.5 µM (inactive)
8,Cc1ccc(S(=O)(=O)CC2CSc3nc4ccccc4n32)cc1 (stereo not drawn),> 85.4 µM (inactive)
9,CCCCCCn1c(NCC)nc2c1c(=O)n(C)c(=O)n2C,> 85.4 µM (inactive)
10,Clc1ccc(OCCN2CCN(c3ncnc4sccc34)CC2)cc1,> 85.5 µM (inactive)
11,O=C(NCCc1cn2ccccc2n1)c1cc(COc2ccc3ncccc3c2)on1,31.1 µM (inactive)
12,Cc1cc(C)c(O)c(C(=O)CC2CC(=O)NC(=O)C2)c1,> 85.4 µM (inactive)
13,CCOC(=O)c1cnc(-n2nc(C)cc2C)nc1NC1CCCCC1,45.4 µM (inactive)
14,Cc1cc(-n2c(C)cc(C(=O)CSc3ncnc4ccccc34)c2C)no1,> 85.5 µM (inactive)
15,CC(=O)c1c(C)[nH]c(C(=O)OCCCCN2C(=O)c3ccccc3C2=O)c1C,63.7 µM (inactive)
16,Oc1ccc(-c2n[nH]c(C(F)(F)F)c2-c2ccccc2)c(O)c1,> 85.4 µM (inactive)
17,CCOC(=O)N1CCC(Nc2ncnc3c2cnn3-c2ccc(C)cc2C)CC1,> 85.4 µM (inactive)
18,Cc1nc2ccccc2n1Cc1ccc(Br)cc1,> 85.3 µM (inactive)
19,CC1(C)CC(=O)C=C(c2ccc(-c3cnc4ccccc4c3)cc2)C1=O,12.5 µM (inactive)
20,O=C(c1cc(COc2cccc3cnccc23)on1)N1CCCC(CCCO)C1 (stereo not drawn),> 85.4 µM (inactive)
21,CC(C)OCCCNc1ncnc2c1[nH]c1ccc(F)cc12,> 85.4 µM (inactive)

# — PubChem BioAssay AID720547 (The Scripps Research Institute Molecular Screening Center, 2013)
